Test results published in patent US12227501B2, “3-amino-2-[2-(acylamino)pyridin-4-yl]-1,5,6,7-tetrahydro-4h-pyrrolo[3,2-c]pyridin-4-one as CSNK1 inhibitors” (Bayer Aktiengesellschaft, priority 2019, dated 2025).
Several values for one entry are separate records, joined by “and”; a condition that tells them apart may be missing. Equal entries are not always repeated. Where two headings read alike, the source gives them in different places.

How the values were obtained:
Format in all cases: biochemical
human CSNK1A1 [1] = target: T1, human CSNK1A1 (Homo sapiens (Human), UniProt P48729); assay: CSNK1A1 High ATP Assay (ADP-Glo, 1 mM ATP); conditions: read-out: CSNK1A1 high ATP assay IC50 [mol/l] (median)
Method in brief: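 Kinase activity taken as ADP generated, quantified by ADP-Glo luminescence after 1 h ATP depletion and 1 h detection at 22 °C. Enzyme is GST–full-length human CSNK1A1 (insect cell-expressed), pre-bound to compound for 15 min, with phosphopeptide substrate and 1 mM ATP.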

[2] = target: wild-type Epidermal Growth Factor Receptor (EGFR) (Homo sapiens (Human), UniProt P00533); assay: WT-EGFR Kinase Assay (TR-FRET, 2 mM ATP)
human CSNK1A1 [3] = target: T1, human CSNK1A1; assay: CSNK1A1 Assay 2 (ADP-Glo, 1 μM ATP); conditions: substrate biotin-Ahx-KRRRAL-pS-VASLPGL, read-out: CSNK1A1 Assay 2 IC50 [mol/l] (median)
Method in brief: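 Full-length human CSNK1A1 as an N-terminal GST fusion (baculovirus/insect cells) with biotinylated peptide substrate biotin-Ahx-KRRRAL-pS-VASLPGL and 1 μM ATP, in HEPES pH 7.5 buffer. Compounds were pre-incubated with enzyme (~0.0375 ng/μL) for 15 min at 22 °C. Generated ADP was read by ADP-Glo luminescence as the activity measure.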

human CSNK1D = human CSNK1D (Homo sapiens (Human), UniProt P48730); assay: CSNK1D Assay (ADP-Glo, 1 μM ATP); conditions: read-out: CSNK1D IC50 [mol/l] (median)
Method in brief: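 Activity is read as ADP produced, by ADP-Glo luminescence after 1 h steps at 22 °C. The reaction uses 1 μM ATP, a biotinylated peptide and insect-cell-expressed GST–CSNK1D (about 0.5 ng/μL) in pH 7.5 HEPES buffer, with 15 min compound–enzyme preincubation.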

[4] = EGFR Wildtyp- 2 mM ATP IC50 [mol/l] (median)
[5] = read-out: EGFR Wildtyp- 2 mM ATP IC50 [mol/l] (median)

Chain of human CSNK1D (P48730 whole entry): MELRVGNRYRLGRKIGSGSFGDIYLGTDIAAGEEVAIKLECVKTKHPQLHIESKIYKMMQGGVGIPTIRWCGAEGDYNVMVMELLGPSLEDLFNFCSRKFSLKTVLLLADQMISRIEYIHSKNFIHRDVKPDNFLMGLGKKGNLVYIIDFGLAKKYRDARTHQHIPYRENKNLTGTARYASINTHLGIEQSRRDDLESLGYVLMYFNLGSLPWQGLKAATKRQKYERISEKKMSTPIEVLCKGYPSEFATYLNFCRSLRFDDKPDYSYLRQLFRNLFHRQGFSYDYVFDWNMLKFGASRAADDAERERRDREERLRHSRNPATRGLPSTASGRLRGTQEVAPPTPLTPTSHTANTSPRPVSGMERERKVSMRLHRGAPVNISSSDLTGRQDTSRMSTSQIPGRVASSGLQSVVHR
Chain of wild-type Epidermal Growth Factor Receptor (EGFR) (P00533 669-1210): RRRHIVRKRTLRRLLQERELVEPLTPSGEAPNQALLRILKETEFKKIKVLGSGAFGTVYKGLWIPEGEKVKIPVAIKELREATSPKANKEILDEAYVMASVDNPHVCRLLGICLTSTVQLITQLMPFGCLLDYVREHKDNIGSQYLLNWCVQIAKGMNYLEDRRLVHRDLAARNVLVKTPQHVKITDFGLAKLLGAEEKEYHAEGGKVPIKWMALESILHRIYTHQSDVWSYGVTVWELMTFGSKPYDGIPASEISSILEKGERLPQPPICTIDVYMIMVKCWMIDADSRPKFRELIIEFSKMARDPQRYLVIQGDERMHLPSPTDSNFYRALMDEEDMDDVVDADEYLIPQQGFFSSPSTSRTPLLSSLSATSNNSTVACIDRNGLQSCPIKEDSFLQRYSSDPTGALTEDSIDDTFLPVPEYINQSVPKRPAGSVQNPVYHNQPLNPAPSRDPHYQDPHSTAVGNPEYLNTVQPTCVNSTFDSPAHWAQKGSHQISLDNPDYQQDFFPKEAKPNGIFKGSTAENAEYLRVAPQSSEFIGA
T1 sequence (P48729 whole entry): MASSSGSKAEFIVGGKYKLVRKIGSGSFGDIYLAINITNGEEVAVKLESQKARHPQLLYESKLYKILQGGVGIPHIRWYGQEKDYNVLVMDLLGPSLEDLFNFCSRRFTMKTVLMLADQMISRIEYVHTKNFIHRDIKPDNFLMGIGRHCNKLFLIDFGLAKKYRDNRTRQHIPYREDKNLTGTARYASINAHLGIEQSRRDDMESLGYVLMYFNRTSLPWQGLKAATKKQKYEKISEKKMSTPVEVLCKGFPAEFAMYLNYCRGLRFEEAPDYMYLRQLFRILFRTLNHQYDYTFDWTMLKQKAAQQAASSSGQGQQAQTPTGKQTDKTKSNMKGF

Compound	IC50 (human CSNK1A1 [1])	IC50 [2, 4] [nM]	IC50 (human CSNK1A1 [3])	IC50 (human CSNK1D) [nM]	IC50 [2, 5] [nM]
CC1(C)Cc2[nH]c(-c3ccnc(NC(=O)C(CC(F)F)c4ccc(S(C)(=O)=O)cc4)c3)c(Nc3ccccc3)c2C(=O)N1 (racemic) [Example 118, N-[4-(3-anilino-6,6-dimethyl-4-oxo-4,5,6,7-tetrahydro-1H-pyrrolo[3,2-c]pyridin-2-yl)pyridin-2-yl]-4,4-difluoro-2-[4-(methanesulfonyl)phenyl]butanamide (Racemate)]	107 nM	7260	5.16 nM	12.9	–
CC(C(=O)Nc1cc(-c2[nH]c3c(c2Nc2ccccc2)C(=O)N(C)C(C)C3)ccn1)c1ccc(F)cc1 (single isomer, unassigned; (-)) [Example 95, (−)-N-{4-[3-anilino-5,6-dimethyl-4-oxo-4,5,6,7-tetrahydro-1H-pyrrolo[3,2-c]pyridin-2-yl]pyridin-2-yl}-2-(4-fluorophenyl)propanamide]	2460 nM	6310	46.2 nM	45.3	–
CN1CCc2[nH]c(-c3ccnc(NC(=O)Cc4ccc(C(F)F)cc4)c3)c(Nc3ccccc3)c2C1=O [Example 78, N-[4-(3-anilino-5-methyl-4-oxo-4,5,6,7-tetrahydro-1H-pyrrolo[3,2-c]pyridin-2-yl)pyridin-2-yl]-2-[4-(difluoromethyl)phenyl]acetamide]	95.5 nM	–	2.95 nM	7.93	3090
O=C1NC2(CC2)Cc2[nH]c(-c3ccnc(NC(=O)C(CC(F)F)c4ccc(F)cc4)c3)c(Nc3ccccc3)c21 (single isomer, unassigned; enantiomer 2) [Example 149, N-[4-(3′-anilino-4′-oxo-1′,4′,5′,7′-tetrahydrospiro[cyclopropane-1,6′-pyrrolo[3,2-c]pyridin]-2′-yl)pyridin-2-yl]-4,4-difluoro-2-(4-fluorophenyl)butanamide (Enantiomer 2)]	473 nM	16700	40.4 nM	39.4	–
CN1CCc2[nH]c(-c3ccnc(NC(=O)Cc4ccc(C(=O)N5CCNCC5)cc4)c3)c(Nc3ccccc3)c2C1=O [Example 153, N-[4-(3-anilino-5-methyl-4-oxo-4,5,6,7-tetrahydro-1H-pyrrolo[3,2-c]pyridin-2-yl)pyridin-2-yl]-2-[4-(piperazine-1-carbonyl)phenyl]acetamide]	73.9 nM	–	1.96 nM	9.28	287
CCC(C(=O)Nc1cc(-c2[nH]c3c(c2Nc2ccccc2)C(=O)N(C)CC3)ccn1)c1ccc(F)cc1 (racemic) [Example 75, N-[4-(3-anilino-5-methyl-4-oxo-4,5,6,7-tetrahydro-1H-pyrrolo[3,2-c]pyridin-2-yl)pyridin-2-yl]-2-(4-fluorophenyl)butanamide]	164 nM	> 20000	5.49 nM	8.28	–
CC(C(=O)Nc1cc(-c2[nH]c3c(c2Nc2ccccc2Cl)C(=O)NCC3)ccn1)c1ccc(F)cc1 (single isomer, unassigned) [Example 16, N-{4-[3-(2-chloroanilino)-4-oxo-4,5,6,7-tetrahydro-1H-pyrrolo[3,2-c]pyridin-2-yl]pyridin-2-yl}-2-(4-fluorophenyl)propanamide]	102 nM	–	2.57 nM	8	> 20000
O=C(Cc1ccc(F)cc1)Nc1cc(-c2[nH]c3c(c2Nc2ccccc2)C(=O)NC(C(F)(F)F)C3)ccn1 (racemic) [Example 43, N-{4-[3-anilino-4-oxo-6-(trifluoromethyl)-4,5,6,7-tetrahydro-1H-pyrrolo[3,2-c]pyridin-2-yl]pyridin-2-yl}-2-(4-fluorophenyl)acetamide]	67.5 nM	2000	3.52 nM	7.12	–
O=C1NC2(CCC2)Cc2[nH]c(-c3ccnc(NC(=O)C(CC(F)F)c4ccc(F)cc4)c3)c(Nc3cccc(F)c3Cl)c21 (racemic) [Example 123, N-{4-[3′-(2-chloro-3-fluoroanilino)-4′-oxo-1′,4′,5′,7′-tetrahydrospiro[cyclobutane-1,6′-pyrrolo[3,2-c]pyridin]-2′-yl]pyridin-2-yl}-4,4-difluoro-2-(4-fluorophenyl)butanamide (Racemate)]	29.1 nM	56.4	13.5 nM	9.91	–
CC(C(=O)Nc1cc(-c2[nH]c3c(c2Nc2ccccc2)C(=O)NCC3)ccn1)c1ccc(F)cc1 (single isomer, unassigned) [Example 10, N-[4-(3-anilino-4-oxo-4,5,6,7-tetrahydro-1H-pyrrolo[3,2-c]pyridin-2-yl)pyridin-2-yl]-2-(4-fluorophenyl)propanamide]	25.5 nM	12400	4.61 nM	14	–
CN(C)CCNC(=O)c1ccc(CC(=O)Nc2cc(-c3[nH]c4c(c3Nc3ccccc3)C(=O)N(C)CC4)ccn2)cc1 [Example 155, 4-(2-{[4-(3-anilino-5-methyl-4-oxo-4,5,6,7-tetrahydro-1H-pyrrolo[3,2-c]pyridin-2-yl)pyridin-2-yl]amino}-2-oxoethyl)-N-[2-(dimethylamino)ethyl]benzamide]	48.5 nM	–	3.12 nM	7.01	476
Cc1ccccc1Nc1c(-c2ccnc(NC(=O)C(CC(F)F)c3ccc(F)cc3)c2)[nH]c2c1C(=O)NC1(CCC1)C2 (single isomer, unassigned; enantiomer 1) [Example 144, (−)-4,4-difluoro-2-(4-fluorophenyl)-N-{4-[3′-(2-methylanilino)-4′-oxo-1′,4′,5′,7′-tetrahydrospiro[cyclobutane-1,6′-pyrrolo[3,2-c]pyridin]-2′-yl]pyridin-2-yl}butanamide-(Enantiomer 1)]	5060 nM	> 20000	80.7 nM	82	–
O=C1NC2(CCC2)Cc2[nH]c(-c3ccnc(NC(=O)C(CC(F)F)c4ccc(F)cc4)c3)c(Nc3ccccc3)c21 (racemic) [Example 54, N-[4-(3′-anilino-4′-oxo-1′,4′,5′,7′-tetrahydrospiro[cyclobutane-1,6′-pyrrolo[3,2-c]pyridin]-2′-yl)pyridin-2-yl]-4,4-difluoro-2-(4-fluorophenyl)butanamide]	14.6 nM	> 20000	4.62 nM	5.5	–
CC(C(=O)Nc1cc(-c2[nH]c3c(c2Nc2ccccc2)C(=O)N(C2CC2)CC3)ccn1)c1ccc(F)cc1 (stereo not drawn) [Example 8, N-[4-(3-anilino-5-cyclopropyl-4-oxo-4,5,6,7-tetrahydro-1H-pyrrolo[3,2-c]pyridin-2-yl)pyridin-2-yl]-2-(4-fluorophenyl)propanamide]	1930 nM	–	15.4 nM	37.9	> 20000
CC(C(=O)Nc1cc(-c2[nH]c3c(c2Nc2ccccc2)C(=O)N(C)CC3)ccn1)c1ccncc1 (single isomer, unassigned; (+)) [Example 73, (+)-N-[4-(3-anilino-5-methyl-4-oxo-4,5,6,7-tetrahydro-1H-pyrrolo[3,2-c]pyridin-2-yl)pyridin-2-yl]-2-(pyridin-4-yl)propanamide]	63.3 nM	6780	2.38 nM	4.46	–
Cc1ccccc1Nc1c(-c2ccnc(NC(=O)C(CC(F)F)c3ccc(F)cc3)c2)[nH]c2c1C(=O)NC(C)(C)C2 (single isomer, unassigned; enantiomer 2) [Example 137, N-{4-[6,6-dimethyl-3-(2-methylanilino)-4-oxo-4,5,6,7-tetrahydro-1H-pyrrolo[3,2-c]pyridin-2-yl]pyridin-2-yl}-4,4-difluoro-2-(4-fluorophenyl)butanamide (Enantiomer 2)]	451 nM	–	42.2 nM	82.7	> 20000
CC(C(=O)Nc1cc(-c2[nH]c3c(c2Nc2ccccc2)C(=O)N(C)C2(CCC2)C3)ccn1)c1ccc(F)cc1 (single isomer, unassigned; enantiomer 1) [Example 158, (−)-N-[4-(3′-anilino-5′-methyl-4′-oxo-1′,4′,5′,7′-tetrahydrospiro[cyclobutane-1,6′-pyrrolo[3,2-c]pyridin]-2′-yl)pyridin-2-yl]-2-(4-fluorophenyl)propanamide (Enantiomer 1)]	> 1630 nM and 5570 nM	> 20000	239 nM and 263 nM and 52.5 nM and 67.7 nM	188	–
CN1CCc2[nH]c(-c3ccnc(NC(=O)C(CC(F)F)c4ccc(F)cc4)c3)c(Nc3ccccc3)c2C1=O (single isomer, unassigned; (-)) [Example 62, (−)-N-[4-(3-anilino-5-methyl-4-oxo-4,5,6,7-tetrahydro-1H-pyrrolo[3,2-c]pyridin-2-yl)pyridin-2-yl]-4,4-difluoro-2-(4-fluorophenyl)butanamide]	1500 nM	> 20000	21 nM	29.7	–
